# Where two headings read alike, the source gives them in different places.
# B1: Glycophorin A: sialylated glycoprotein (protein, UniProt P02724 20-150, looked up)
# Glycophorin-A: LSTTEVAMHTSTSSSVTKSYISSQTNDTHKRDTYAATPRAHEVSEISVRTVYPPEEETGERVQLAHHFSEPEITLIIFGVMAGVIGTILLISYGIRRLIKKSPSDVKPLPSPDTDVPLSSVEIENPETSDQ
# Key:
# [1] = system: adenovirus subtype 37 (Ad37); assay: Interference of the binding of Ad37 with the first step cellular receptor; assay type: cell-based
# Text: (§1) Interference of the binding of adenovirus subtype 37 (Ad37) with the first step cellular receptor was studied using dextran sulphate and glycosaminoglycans, such as heparin and heparan sulphates. […] It was thus confirmed that the cellular receptor for Ad37 is (2-3) linked sialic acid.
# [2] = system: Ad37 binding to Chang C conjunctival cells; assay: microbe, parasite or virus in culture; assay type: cell-based, adenovirus; details: for Interference with the binding of Ad37 to sialic acid expressing cells: 160 mmol concentrations
# Text: as §1
# The effect of glycoproteins to inhibit Ad37 binding to Chang C conjunctival cells was investigated using the following glycoproteins: fetuin, mucin, orosomucoid and glycophorin A. The results are presented in table 2.
# The inventors confirmed the inventive concept by determining the inhibition achieved with different carbohydrates, using adenovirus type 37 and Chang C conjunctival cells.
# All data are visualised as the dose required for 50% inhibition of adenovirus binding and the maximum inhibition of adenovirus binding.
# [3] = system: adenovirus type 8 binding to Chang C conjunctival cells; assay: Inhibition of adenovirus type 8 binding to Chang C conjunctival cells; assay type: cell-based
# [4] = system: adenovirus type 19a binding to Chang C conjunctival cells; assay: Inhibition of adenovirus type 19a binding to Chang C conjunctival cells; assay type: cell-based
# Ad37 virus = assay: Binding of 125I-labeled Ad37 to glycosphingolipids; parameters: species or system adenovirus; details: preliminary results, thin layer chromatography, FIG. 3
# adenoviral adhesion = assay: Inhibition of adenoviral adhesion by multivalent ligands; assay type: cell-based, adenovirus; details: multivalent ligand
# Text: Monovalent analogues of the sialic acid receptor will have to cover most of the twelve fibres at each of the twelve comers of the virus particle to enable efficient blocking of the binding of the virus particle to the host cell receptors. Divalent or multivalent analogues will, by interacting with a few fibres, enable aggregation of numerous virus particles into a lattice. This will hamper or inhibit virus infection with a higher efficiency, i.e. more inhibition per μmole of ligand.
# [5] = system: Ad37 binding to Chinese hamster ovary cells; assay: Ad37 binding to Chinese hamster ovary cells that do not express CAR; assay type: cell-based, adenovirus; details: Chinese hamster ovary cells not expressing CAR; see FIG. 2
# Text: as §1
# [6] = system: Ad37 binding to human epithelial A549 cells; assay: Ad37 binding to A549 cells; assay type: cell-based, adenovirus; details: pre-treatment / pre-incubation of the cells; FIG. 2
# Text: Binding to human epithelial A549 cells was investigated. […] This means that Ad8, Ad19a and Ad37, but not types 9 and 19p infect A549 cells by binding to cell surface sialic acid.
# [7] = Chang cells, sialic acid carbohydrates, read-out: Concentration of carbohydrate causing 50% inhibition of Ad37 binding
# [8] = read-out: Concentration of carbohydrate causing 50% inhibition of Ad37 binding
# [9] = Chang cells, sialylated glycoproteins, read-out: Concentration of glycoprotein causing 50% inhibition of Ad37 binding
molecule,measurement,setting,value
dextran sulphate,Impairment of Ad37 binding by negatively charged molecules,[1],could impair binding of the virus
heparin,Maximal inhibition of binding in %,"[2]; adenovirus type 37, 670 μM heparin",87%
same,IC50,"[2]; adenovirus type 37, Chang C conjunctival cells, read-out: Concentration of heparin causing 50% inhibition of binding",20 µM
same,Maximal inhibition of binding in %,"[3]; adenovirus type 8, 670 μM heparin",92%
same,IC50,"[3]; adenovirus type 8, Chang C conjunctival cells, read-out: Concentration of heparin causing 50% inhibition of binding",30 µM
same,Maximal inhibition of binding in %,[4]; 670 μM heparin,90%
same,IC50,"[4]; Chang C conjunctival cells, read-out: Concentration of heparin causing 50% inhibition of binding",25 µM
same,Impairment of Ad37 binding by negatively charged molecules,[1],could impair binding of the virus
"CC(=O)N[C@@H]1[C@@H](O)[C@@H](O)[C@@H](CO)O[C@@H]1O [acetyl galactose amine, reference compound]",Interference with the binding of Ad37 to sialic acid expressing cells,[2],did not interfere with the binding
CC(=O)N[C@H]1[C@H]([C@H](O)[C@H](O)CO)O[C@@](O[C@H]2[C@@H](O)[C@@H](CO)O[C@@H](O[C@H]3[C@H](O)[C@@H](NC(C)=O)C(O)O[C@@H]3CO)[C@@H]2O)(C(=O)O)C[C@@H]1O (stereo partly drawn) [α-NeuNAc-(2-3)-β-D-Gal-(1-4)-D-GlcNAc],Inhibiting binding of Ad37 to sialic acid-expressing cells (in words),[2],effective in inhibiting binding
same,IC50,[2]; [7],5000 µM
O=C(CO)N[C@H]1[C@H]([C@H](O)[C@H](O)CO)OC(O)(C(=O)O)C[C@@H]1O (stereo partly drawn) [N-glycolyl-neuraminic acid],Inhibiting binding of Ad37 to sialic acid-expressing cells (in words),[2],effective in inhibiting binding
same,Maximal inhibition of Ad37 binding in %,[2]; 160 mM carbohydrate,91%
same,IC50,[2]; [8],40000 µM
"CC(=O)N[C@H]1[C@H]([C@H](O)[C@H](O)CO)O[C@@](O[C@H]2[C@@H](O)[C@@H](CO)O[C@@H](O[C@H]3[C@H](O[C@@H]4O[C@@H](C)[C@@H](O)[C@@H](O)[C@@H]4O)[C@@H](O)C(O)O[C@@H]3CO)[C@@H]2O)(C(=O)O)C[C@@H]1O (stereo partly drawn) [N-Acetyl Neuraminyl-3-Fucosyl Lactose, α-Neu-5-Ac-(2-3)-β-D-Gal(1-4)-(α-Fuc-(1-3))-Glc]",Inhibiting binding of Ad37 to sialic acid-expressing cells (in words),[2],effective in inhibiting binding
same,IC50,[2]; [7],5000 µM
"CC(=O)N[C@@H]1[C@@H](O)[C@H](O)[C@@H](CO)O[C@H]1O [acetyl glucose amine, reference compound]",Interference with the binding of Ad37 to sialic acid expressing cells,[2],did not interfere with the binding
"OC[C@H]1O[C@@H](O[C@H]2[C@H](O)[C@@H](O)C(O)O[C@@H]2CO)[C@H](O)[C@@H](O)[C@H]1O (stereo partly drawn) [lactose, reference compound]",Interference with the binding of Ad37 to sialic acid expressing cells,[2],did not interfere with the binding
GalNAcβ4(NeuAcα8NeuAcα3)Galβ4Glcβ1 [NeuAc-GD2],Ad37 virus binding to the structure,Ad37 virus,effective for Ad37 virus binding
CC(=O)N[C@H]1[C@H]([C@H](O)[C@H](O)CO)OC(O)(C(=O)O)C[C@@H]1O (stereo partly drawn) [N-acetyl-neuraminic acid],Inhibiting binding of Ad37 to sialic acid-expressing cells (in words),[2],effective in inhibiting binding
same,Maximal inhibition of Ad37 binding in %,[2]; 160 mM carbohydrate,82%
same,IC50,[2]; [8],18000 µM
GalNAcβ4(NeuAcα3)Galβ4Glcβ1 [NeuAcGM2],Ad37 virus binding to the structure,Ad37 virus,effective for Ad37 virus binding
N-acetyl-neuraminyllactose,Inhibiting binding of Ad37 to sialic acid-expressing cells (in words),[2],effective in inhibiting binding
same,Maximal inhibition of Ad37 binding in %,[2]; 160 mM carbohydrate,95%
same,Inhibition of Ad37 binding (in words),[2]; 160 mM concentration,almost total inhibition
same,IC50,[2]; [7],5000 µM
Mucin,Maximal inhibition of Ad37 binding in %,[2]; 500 μM glycoprotein,89%
same,IC50,[2]; [9],8 µM
same,Inhibiting adenoviral adhesion,adenoviral adhesion,very effective
Galβ3GalNAcβ4(NeuAcα8NeuAcα3)Galβ4Glcβ1 [NeuAc-GD1b],Ad37 virus binding to the structure,Ad37 virus,effective for Ad37 virus binding
"O=C[C@H](O)[C@@H](O)[C@@H](O)[C@H](O)CO [galactose, reference compound]",Interference with the binding of Ad37 to sialic acid expressing cells,[2],did not interfere with the binding
CC(=O)N[C@H]1[C@H]([C@H](O)[C@H](O)CO)O[C@@](OC[C@H]2O[C@@H](O[C@H]3[C@H](O)[C@@H](NC(C)=O)C(O)O[C@@H]3CO)[C@H](O)[C@@H](O)[C@H]2O)(C(=O)O)C[C@@H]1O (stereo partly drawn) [α-Neu-5Ac-(2-6)-β-D-Gal-(1-4)-D-GlcNAc],Inhibiting binding of Ad37 to sialic acid-expressing cells (in words),[2],effective in inhibiting binding
same,IC50,[2]; [7],7000 µM
Fetuin: sialylated glycoprotein,Maximal inhibition of Ad37 binding in %,[2]; 500 μM glycoprotein,62%
same,IC50,[2]; [9],420 µM
wheat germ agglutinin,Inhibition/blocking of Ad37 binding,[5],blocked the binding
same,Inhibition of Ad37 binding to A549 cells,[6],is inhibited
Colominic acid,Inhibiting binding of Ad37 to sialic acid-expressing cells (in words),[2],effective in inhibiting binding
same,Maximal inhibition of Ad37 binding in %,[2]; 160 mM carbohydrate,79%
CC(=O)NC1C(O)CC(OC2C(O)C(CO)OC(OC3C(O)C(CO)OC(O)C3NC(C)=O)C2O)(C(=O)O)OC1C(O)C(O)CO [α-NeuAc-(2-3)-β-D-Gal-(1-3)-β-GalNAc],Ad37 virus binding to the structure,Ad37 virus,effective for Ad37 virus binding
"CC(=O)N[C@H]1[C@@H](O)[C@H](O)[C@@H](CO)O[C@@H]1O [acetyl mannose amine, reference compound]",Interference with the binding of Ad37 to sialic acid expressing cells,[2],did not interfere with the binding
heparan sulphates,Impairment of Ad37 binding by negatively charged molecules,[1],could impair binding of the virus
"Orosomucoid: sialylated, negatively charged glycoprotein",Maximal inhibition of Ad37 binding in %,[2]; 500 μM glycoprotein,77%
same,IC50,[2]; [9],75 µM
NeuAcα3Galβ3GalNAcβ4(NeuAcα3)Galβ4Glcβ1 [NeuAc-GD1a],Ad37 virus binding to the structure,Ad37 virus,effective for Ad37 virus binding
B1,Maximal inhibition of Ad37 binding in %,[2]; 500 μM glycoprotein,45%
same,IC50,[2]; [9],> 500 µM
